The target of one assay is T1, AMPK 111 (Homo sapiens, UniProt Q13131+Q9Y478).
T1 construct: open reading frames encoding the full-length α1, β1 and δ1 subunits of human AMPK; made in house; host or cells: E. coli BL21-CodonPlus (DE3)-RIPL, pET-14b
In words: Biochemical profiling of AMPK activators by AMPK111 (HTRF/TR-FRET assay, SAMS peptide, PP2A dephosphorylation protection). Conditions: for EC50: phosphorylated AMPK 111 (α1β1δ1 as printed), 11 point dilution, duplicate, 4-parameter fit; for Emax: phosphorylated AMPK 111, maximal activation. How it is done:
(§1) The biochemical EC50 (half-maximal concentration required for full activation) of compounds for the activation of AMPK was evaluated by HTRF assay using LANCE Ultra ULight-Acetyl-CoA Carboxylase (SAMS) peptide (commercially available, Perkin Elmer catalog TRF0133-M).
Following a fifteen-minute room temperature incubation, 5 μL of 30 nM protein phosphatase PP2A (isolation detailed above) diluted in the assay buffer was added to the plate, to dephosphorylate pThr172 of AMPK. […] The reaction was terminated after 60 minutes incubation at room temperature, by the addition of 5 μL of stop and detection cocktail, which consisted of 1× Perkin Elmer Lance buffer (Perkin Elmer catalog number CR97-100), 40 mM EDTA (Thermo Fisher catalog number BP2482-100), and 2 nM Eu-anti-Acetyl CoA Carboxylase [pSer70] antibody (Perkin Elmer, TRF0208-M).

The target of a further assay is T2, AMPK 221 (Homo sapiens, UniProt O43741+P54646).
T2 construct: open reading frames encoding the full-length α2, β2 and δ1 subunits of human AMPK; made in house; host or cells: E. coli BL21-CodonPlus (DE3)-RIPL, pET-14b
T2 sequence (P54646 whole entry): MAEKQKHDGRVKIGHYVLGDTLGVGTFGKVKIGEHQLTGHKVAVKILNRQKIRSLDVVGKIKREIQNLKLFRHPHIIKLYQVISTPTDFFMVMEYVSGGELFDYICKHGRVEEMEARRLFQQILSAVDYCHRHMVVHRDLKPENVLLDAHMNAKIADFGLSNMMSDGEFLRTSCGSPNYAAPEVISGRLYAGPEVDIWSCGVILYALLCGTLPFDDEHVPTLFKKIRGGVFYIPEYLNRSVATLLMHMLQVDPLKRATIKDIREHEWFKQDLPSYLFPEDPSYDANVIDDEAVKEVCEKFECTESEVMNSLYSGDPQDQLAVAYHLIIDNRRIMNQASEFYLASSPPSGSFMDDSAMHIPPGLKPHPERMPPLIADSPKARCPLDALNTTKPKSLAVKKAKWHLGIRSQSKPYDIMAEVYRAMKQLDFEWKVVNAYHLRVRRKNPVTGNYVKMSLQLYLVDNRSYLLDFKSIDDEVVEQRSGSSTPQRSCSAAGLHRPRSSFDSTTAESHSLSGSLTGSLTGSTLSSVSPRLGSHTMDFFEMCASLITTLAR
T2 sequence (O43741 whole entry): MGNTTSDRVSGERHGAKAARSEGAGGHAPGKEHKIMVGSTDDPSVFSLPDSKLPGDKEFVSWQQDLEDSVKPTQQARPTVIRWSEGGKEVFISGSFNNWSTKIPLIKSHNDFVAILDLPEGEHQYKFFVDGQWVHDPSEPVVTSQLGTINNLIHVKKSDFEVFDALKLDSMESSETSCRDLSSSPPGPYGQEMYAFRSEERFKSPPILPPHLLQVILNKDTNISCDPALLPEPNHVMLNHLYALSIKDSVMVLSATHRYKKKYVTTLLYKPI
T2 sequence (P54619 whole entry partner): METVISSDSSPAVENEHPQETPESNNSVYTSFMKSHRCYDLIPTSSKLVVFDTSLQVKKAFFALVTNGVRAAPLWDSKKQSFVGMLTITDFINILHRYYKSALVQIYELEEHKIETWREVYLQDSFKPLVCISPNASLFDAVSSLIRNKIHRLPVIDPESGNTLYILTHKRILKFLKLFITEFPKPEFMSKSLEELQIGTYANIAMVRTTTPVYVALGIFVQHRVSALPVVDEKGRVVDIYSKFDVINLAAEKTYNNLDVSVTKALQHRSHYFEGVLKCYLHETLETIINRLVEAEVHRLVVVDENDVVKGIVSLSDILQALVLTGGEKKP
In words: Biochemical profiling of AMPK activators by AMPK221 (HTRF/TR-FRET assay, SAMS peptide, PP2A dephosphorylation protection). The note with it: for EC50: phosphorylated AMPK 221 (α2β2δ1), 11 point dilution, duplicate, 4-parameter fit; for Emax: phosphorylated AMPK 221, maximal activation. How it is done:
as §1
The reaction was terminated after 60 minutes incubation at room temperature by the addition of 5 μL of stop and detection cocktail, which consisted of 1× Perkin Elmer Lance buffer (Perkin Elmer catalog number CR97-100), 40 mM EDTA (Thermo Fisher catalog number BP2482-100), and 2 nM Eu-anti-Acetyl CoA Carboxylase [pSer70] antibody (Perkin Elmer, TRF0208-M). Plates were spun at 1000 RPM, 10 seconds.
(In general: TR-FRET usually uses a lanthanide donor and a delayed reading to cut background.)

T1 sequence (Q13131 whole entry): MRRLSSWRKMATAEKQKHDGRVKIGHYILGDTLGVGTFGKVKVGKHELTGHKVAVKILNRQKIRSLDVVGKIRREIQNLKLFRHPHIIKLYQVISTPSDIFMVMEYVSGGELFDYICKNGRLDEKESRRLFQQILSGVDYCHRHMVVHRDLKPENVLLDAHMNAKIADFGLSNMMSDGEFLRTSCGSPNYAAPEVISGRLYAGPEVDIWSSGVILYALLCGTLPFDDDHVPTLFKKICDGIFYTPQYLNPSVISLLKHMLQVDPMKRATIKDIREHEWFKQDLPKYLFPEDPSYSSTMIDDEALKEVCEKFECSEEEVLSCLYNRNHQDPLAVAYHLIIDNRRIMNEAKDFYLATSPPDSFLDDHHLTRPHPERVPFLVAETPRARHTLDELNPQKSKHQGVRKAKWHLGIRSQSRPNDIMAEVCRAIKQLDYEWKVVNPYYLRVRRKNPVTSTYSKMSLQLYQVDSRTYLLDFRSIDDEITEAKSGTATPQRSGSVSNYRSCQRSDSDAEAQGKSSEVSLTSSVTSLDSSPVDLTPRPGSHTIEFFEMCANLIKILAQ
T1 sequence (Q9Y478 whole entry): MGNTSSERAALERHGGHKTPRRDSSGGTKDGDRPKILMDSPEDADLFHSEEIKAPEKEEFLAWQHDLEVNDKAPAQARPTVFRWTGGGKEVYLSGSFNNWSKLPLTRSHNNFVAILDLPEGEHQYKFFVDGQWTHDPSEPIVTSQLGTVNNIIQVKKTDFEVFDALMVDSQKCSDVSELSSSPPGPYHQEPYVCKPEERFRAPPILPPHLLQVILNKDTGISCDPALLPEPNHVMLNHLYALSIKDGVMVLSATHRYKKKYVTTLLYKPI
T1 sequence (P54619 whole entry partner): as the sequence (P54619 whole entry partner) above

By EC50 is commonly meant the midpoint of the concentration-response curve. The low end stands for greater potency, the high end for weaker potency. A word on the Emax: it is the maximal effect, on the per cent scale that the assay sets. As to `COc1cccc(-c2ccc(-c3cc4c(CCC(=O)O)n[nH]c4cc3Cl)cc2)c1O` [Example 2, 3-(6-Chloro-5-(2′-hydroxy-3′-methoxy-[1,1′-biphenyl]-4-yl)-1H-indazol-3-yl)propanoic acid], at AMPK 111, the EC50 was determined as 29 nM and the Emax was determined as 80%. At AMPK 221, this compound had a half-maximal effective concentration (EC50) of 34 nM and an Emax of 66%.

On AMPK 111, `O=C(O)CCc1n[nH]c2cc(Cl)c(-c3ccc(-c4ccccc4O)cc3)nc12` [Example 73, 3-(6-chloro-5-(2′-hydroxy-[1,1′-biphenyl]-4-yl)-1H-pyrazolo[4,3-b]pyridin-3-yl)propanoic acid] gave an EC50 of 26 nM and a maximal response (Emax) of 86%. In addition, on AMPK 221, the EC50 worked out at 2110 nM and the maximal response (Emax) is 30%.

Consider `CS(=O)(=O)Nc1ccc(-c2ccc(-c3cc4c(CCC(=O)O)n[nH]c4cc3Cl)cc2)cc1` [Example 32, 3-(6-chloro-5-(4′-(methylsulfonamido)-[1,1′-biphenyl]-4-yl)-1H-indazol-3-yl)propanoic acid], for which, on AMPK 111, the EC50 was found to be 136 nM and the Emax is 71%. At AMPK 221, this compound displayed an EC50 of 198 nM and an Emax of 41%.

`O=C(O)CCCc1n[nH]c2cc(Cl)c(-c3ccc(-c4ccccc4O)cc3)cc12` [Example 43, 4-(6-chloro-5-(2′-hydroxy-[1,1′-biphenyl]-4-yl)-1H-indazol-3-yl)butanoic acid]: at AMPK 111, the EC50 amounted to 51 nM and the Emax is 80%. At AMPK 221, this compound yielded an EC50 of 248 nM and a maximum response (Emax) of 62%.

At AMPK 111, `O=C(O)CCc1n[nH]c2cc(Cl)c(-c3ccc(-c4ccc(F)c(F)c4O)cc3)cc12` [Example 71, 3-(6-chloro-5-(3′,4′-difluoro-2′-hydroxy-[1,1′-biphenyl]-4-yl)-1H-indazol-3-yl)propanoic acid] showed an EC50 of 279 nM and an Emax of 73%. Further, at AMPK 221, the EC50 worked out at 994 nM and the Emax worked out at 60%.

At AMPK 111, `CC(C)Oc1cccc(-c2ccc(-c3cc4c(CCC(=O)O)n[nH]c4cc3Cl)cc2)c1O` [Example 37, 3-(6-chloro-5-(2′-hydroxy-3′-isopropoxy-[1,1′-biphenyl]-4-yl)-1H-indazol-3-yl)propanoic acid] registered an EC50 of 464 nM and an Emax of 70%. On AMPK 221, this compound returned an EC50 of 205 nM and an Emax of 52%.

For the compound `NS(=O)(=O)c1ccc(-c2ccc(-c3cc4c(CCC(=O)O)n[nH]c4cc3Cl)cc2)c(O)c1` [Example 9, 3-(6-chloro-5-(2′-hydroxy-4′-sulfamoyl-[1,1′-biphenyl]-4-yl)-1H-indazol-3-yl)propanoic acid], the EC50 on AMPK 111 amounted to 11 nM; at AMPK 221 it was 41 nM. In addition, the maximal effect (Emax) came to 90% on AMPK 111 and 68% on AMPK 221.

For the compound `CN(C)C(=O)c1ccc(-c2ccc(-c3cc4c(CCC(=O)O)n[nH]c4cc3Cl)cc2)cc1` [Example 29, 3-(6-chloro-5-(4′-(dimethylcarbamoyl)-[1,1′-biphenyl]-4-yl)-1H-indazol-3-yl)propanoic acid], the figures for the EC50 on AMPK 111 and on AMPK 221 were 46 nM and 162 nM, respectively. Also, the Emax at AMPK 111 is 72%; at AMPK 221, 63%.

Consider `NC(=O)CSc1ccc(-c2ccc(-c3cc4c(CCC(=O)O)n[nH]c4cc3Cl)cc2)cc1` [Example 17, 3-(5-(4′-((2-amino-2-oxoethyl)thio)-[1,1′-biphenyl]-4-yl)-6-chloro-1H-indazol-3-yl)propanoic acid], for which the EC50 on AMPK 111 worked out at 34 nM; on AMPK 221, 83 nM. In addition, the Emax at AMPK 111 turned out to be 80%; at AMPK 221, 49%.

On AMPK 111, `COc1ccc(-c2ccc(-c3cc4c(CCC(=O)O)n[nH]c4cc3Cl)cc2)c(O)c1` [Example 21, 3-(6-chloro-5-(2′-hydroxy-4′-methoxy-[1,1′-biphenyl]-4-yl)-1H-indazol-3-yl)propanoic acid] came in with an EC50 of 151 nM and an Emax of 65%. On AMPK 221, the response was half-maximal at 97 nM (EC50) and the Emax came out at 56%.

At AMPK 111, `O=C(O)CCc1n[nH]c2cc(Cl)c(-c3ccc(-c4c(O)cccc4F)cc3)cc12` [Example 50, 3-(6-chloro-5-(2′-fluoro-6′-hydroxy-[1,1′-biphenyl]-4-yl)-1H-indazol-3-yl)propanoic acid] came in with an EC50 of 153 nM and an Emax of 76%. For the same compound, on AMPK 221, the EC50 turned out to be 337 nM and the maximal effect (Emax) is 55%.

`CC(=O)N(C)c1ccc(-c2ccc(-c3cc4c(CCC(=O)O)n[nH]c4cc3Cl)cc2)cc1` [Example 39, 3-(6-chloro-5-(4′-(N-methylacetamido)-[1,1′-biphenyl]-4-yl)-1H-indazol-3-yl)propanoic acid]: at AMPK 111, the midpoint of the response, the EC50, lay at 109 nM and the Emax is 69%. For the same compound, at AMPK 221, a half-maximal response (EC50) required 218 nM and the Emax came to 59%.

Consider `COc1cccc(-c2ccc(-c3cc4c(CCCC(=O)O)n[nH]c4cc3Cl)cc2)c1O` [Example 74, 4-(6-chloro-5-(2′-hydroxy-3′-methoxy-[1,1′-biphenyl]-4-yl)-1H-indazol-3-yl)butanoic acid], for which the EC50 at AMPK 111 was found to be 92 nM; on AMPK 221 it was 66 nM. Besides, the Emax at AMPK 111 came to 80%; at AMPK 221, 69%.

As for `N#Cc1cccc(-c2ccc(-c3cc4c(CCC(=O)O)n[nH]c4cc3Cl)cc2)c1O` [Example 55, 3-(6-chloro-5-(3′-cyano-2′-hydroxy-[1,1′-biphenyl]-4-yl)-1H-indazol-3-yl)propanoic acid], the EC50 was determined as 208 nM on AMPK 111 and 389 nM on AMPK 221. Further, the Emax was determined as 45% at AMPK 111 and 38% at AMPK 221.

In the case of `NC(=O)COc1ccc(-c2ccc(-c3cc4c(CCC(=O)O)n[nH]c4cc3Cl)cc2)cc1` [Example 72, 3-(5-(4′-(2-amino-2-oxoethoxy)-[1,1′-biphenyl]-4-yl)-6-chloro-1H-indazol-3-yl)propanoic acid], at AMPK 111, the concentration for a half-maximal effect (EC50) turned out to be 99 nM and the Emax turned out to be 103%. Besides, at AMPK 221, the EC50 was 1830 nM and the maximal response (Emax) amounted to 114%.

On to `Cc1cc(C)c(-c2ccc(-c3cc4c(CCC(=O)O)n[nH]c4cc3Cl)cc2)c(O)c1` [Example 18, 3-(6-chloro-5-(2′-hydroxy-4′,6′-dimethyl-[1,1′-biphenyl]-4-yl)-1H-indazol-3-yl)propanoic acid], for which the values for the EC50 on AMPK 111 and at AMPK 221 were 12 nM and 96 nM, respectively. The Emax at AMPK 111 stood at 84%; at AMPK 221, 64%.

On AMPK 111, `O=C(O)CCc1n[nH]c2cc(Cl)c(-c3ccc(-c4ccc(OCCN5CCOCC5)cc4)cc3)cc12` [Example 38, 3-(6-chloro-5-(4′-(2-morpholinoethoxy)-[1,1′-biphenyl]-4-yl)-1H-indazol-3-yl)propanoic acid] showed an EC50 of 95 nM and an Emax of 67%. On AMPK 221, this compound displayed an EC50 of 209 nM and an Emax of 64%.

On to `COC(=O)c1ccc(-c2ccc(-c3cc4c(CCC(=O)O)n[nH]c4cc3Cl)cc2)c(O)c1` [Example 31, 3-(6-Chloro-5-(2′-hydroxy-4′-(methoxycarbonyl)-[1,1′-biphenyl]-4-yl)-1H-indazol-3-yl)propanoic acid], for which, at AMPK 111, the EC50 was determined as 57 nM and the maximal effect (Emax) was 84%. Moreover, on AMPK 221, the EC50 was 190 nM and the Emax was 61%.

Regarding `O=C(O)CCc1n[nH]c2cc(Cl)c(-c3ccc(-c4ccccc4O)cc3F)cc12` [Example 3, 3-(6-Chloro-5-(3-fluoro-2′-hydroxy-[1,1′-biphenyl]-4-yl)-1H-indazol-3-yl)propanoic acid], the EC50 is 189 nM at AMPK 111 and 528 nM at AMPK 221. The results for the Emax at AMPK 111 and on AMPK 221 were 83% and 61%, respectively.

On AMPK 111, `COCc1ccc(-c2ccc(-c3cc4c(CCC(=O)O)n[nH]c4cc3Cl)cc2)c(O)c1` [Example 10, 3-(6-chloro-5-(2′-hydroxy-4′-(methoxymethyl)-[1,1′-biphenyl]-4-yl)-1H-indazol-3-yl)propanoic acid] showed an EC50 of 29 nM and an Emax of 76%.

For `O=C(O)CCc1n[nH]c2cc(Cl)c(-c3ccc(-c4ccncc4O)cc3)cc12` [Example 7, 3-(6-Chloro-5-(4-(3-hydroxypyridin-4-yl)phenyl)-1H-indazol-3-yl)propanoic acid], the concentration giving a half-maximal response (EC50) on AMPK 111 was determined as 90 nM; at AMPK 221, 359 nM. Also, the Emax at AMPK 111 stood at 71%; at AMPK 221, 57%.

As for `O=C(CCc1n[nH]c2cc(Cl)c(-c3ccc(-c4ccccc4O)cc3)cc12)OC1OC(C(=O)O)C(O)C(O)C1O` (centres unmarked) [Example 79, 6-((3-(6-chloro-5-(2′-hydroxy-[1,1′-biphenyl]-4-yl)-1H-indazol-3-yl)propanoyl)oxy)-3,4,5-trihydroxytetrahydro-2H-pyran-2-carboxylic acid], on AMPK 111, a half-maximal response (EC50) required 39 nM and the Emax was 67%. For the same compound, at AMPK 221, it took 29 nM to reach a half-maximal effect (EC50) and the maximal response (Emax) amounted to 27%.

The values are drawn from patent publication US20240336572A1, “SUBSTITUTED INDAZOLE PROPIONIC ACID DERIVATIVE COMPOUNDS AND USES THEREOF” (Pfizer Inc., priority 2023, published 2024).
